Reference: ChEMBL document CHEMBL5113452, “Synthesis and biological evaluation of hybrids from optically active ring-opened 3-N-butylphthalide derivatives and 4-fluro-edaravone as potential anti-acute ischemic stroke agents” (Bioorg Med Chem, 2022)
Activity calls are given as the source filed them. The calls are words filed in the database; no cut-off is given here.

Tests used:
Rattus norvegicus [1] = experiment: Neuroprotective activity against transient middle cerebral artery occlusion induced cerebral infraction Sprague-Dawley rat model assessed as decrease in brain edema at 10 mg/kg, iv and measured after 24 hrs; assay type: functional
Rattus norvegicus [2] = experiment: Neuroprotective activity against transient middle cerebral artery occlusion induced cerebral infraction Sprague-Dawley rat model assessed as decrease in cerebral infraction volume at 10 mg/kg, iv and measured after 24 hrs by TTC staining based assay; assay type: functional; parameters: scale not given: the % may be the effect or the level left
Rattus norvegicus [3] = experiment: Neuroprotective activity against transient middle cerebral artery occlusion induced ischemia stroke Sprague-Dawley rat model assessed as increase in neuro-fucntional score at 10 mg/kg, iv and measured after 24 hrs by longa's method; assay type: functional, organism-based
[4] = Toxicity in transient middle cerebral artery occlusion induced ischemia stroke Sprague-Dawley rat model assessed as change in body weight at 10 mg/kg, iv and measured after 24 hrs; assay type: organism-based; settings: in vivo
[5] = AUC (0-infinity) in Sprague-Dawley rat plasma at 4.48 mg/kg, iv and measured upto 24 hrs by LC-MS/MS analysis; assay type: ADME, organism-based; parameters: time < 24 hrs, dose 4.48 mg/kg, route iv
[6] = Half life in Sprague-Dawley rat plasma at 4.48 mg/kg, iv and measured upto 24 hrs by LC-MS/MS analysis; assay type: ADME, organism-based
[7] = AUC (0-t) in Sprague-Dawley rat plasma at 4.48 mg/kg, iv and measured upto 24 hrs by LC-MS/MS analysis; assay type: ADME, organism-based; parameters: time < 24 hrs, dose 4.48 mg/kg, route iv
[8] = AUC (0-t) in Sprague-Dawley rat plasma at 4.48 mg/kg, iv and measured upto 24 hrs in presence of 4-F-Eda by LC-MS/MS analysis; assay type: ADME, organism-based; parameters: time < 24 hrs, dose 4.48 mg/kg, route iv
[9] = Volume of distribution at steady state in Sprague-Dawley rat plasma at 4.48 mg/kg, iv and measured upto 24 hrs in presence of 4-F-Eda by LC-MS/MS analysis; assay type: ADME, organism-based; settings: read-out: Vdss
[10] = AUMC (0-t) in Sprague-Dawley rat plasma at 4.48 mg/kg, iv and measured upto 24 hrs in presence of 4-F-Eda by LC-MS/MS analysis; assay type: ADME, organism-based; settings: in vivo
[11] = Elimination rate constant in Sprague-Dawley rat plasma at 4.48 mg/kg, iv and measured upto 24 hrs in presence of 4-F-Eda by LC-MS/MS analysis; assay type: ADME, organism-based
[12] = Cmax in Sprague-Dawley rat plasma at 4.48 mg/kg, iv and measured upto 24 hrs in presence of 4-F-Eda by LC-MS/MS analysis; assay type: ADME, organism-based; parameters: time < 24 hrs, dose 4.48 mg/kg, route iv
[13] = Half life in Sprague-Dawley rat plasma at 4.48 mg/kg, iv and measured upto 24 hrs in presence of 4-F-Eda by LC-MS/MS analysis; assay type: ADME, organism-based
Rattus norvegicus [14] = experiment: Neuroprotective activity against transient middle cerebral artery occlusion induced ischemia stroke Sprague-Dawley rat model assessed as increase in neuro-fucntional score at 4.48 mg/kg, iv and measured after 24 hrs in presence of Eda by longa's method; assay type: functional, organism-based
[15] = Volume of distribution at steady state in Sprague-Dawley rat plasma at 4.48 mg/kg, iv and measured upto 24 hrs by LC-MS/MS analysis; assay type: ADME, organism-based; settings: read-out: Vdss
[16] = MRT in Sprague-Dawley rat plasma at 4.48 mg/kg, iv and measured upto 24 hrs in presence of 4-F-Eda by LC-MS/MS analysis; assay type: ADME, organism-based
[17] = AUMC (0-infinity) in Sprague-Dawley rat plasma at 4.48 mg/kg, iv and measured upto 24 hrs in presence of 4-F-Eda by LC-MS/MS analysis; assay type: ADME, organism-based; settings: in vivo
Rattus norvegicus [18] = experiment: Neuroprotective activity against transient middle cerebral artery occlusion induced cerebral infraction Sprague-Dawley rat model assessed as decrease in cerebral infraction volume at 4.48 mg/kg, iv and measured after 24 hrs in presence of EDA by TTC staining based assay; assay type: functional; parameters: scale not given: the % may be the effect or the level left
[19] = MRT in Sprague-Dawley rat plasma at 4.48 mg/kg, iv and measured upto 24 hrs by LC-MS/MS analysis; assay type: ADME, organism-based
[20] = AUMC (0-infinity) in Sprague-Dawley rat plasma at 4.48 mg/kg, iv and measured upto 24 hrs by LC-MS/MS analysis; assay type: ADME, organism-based; settings: in vivo
[21] = Elimination rate constant in Sprague-Dawley rat plasma at 4.48 mg/kg, iv and measured upto 24 hrs by LC-MS/MS analysis; assay type: ADME, organism-based
[22] = C0 in Sprague-Dawley rat plasma at 4.48 mg/kg, iv and measured upto 24 hrs in presence of 4-F-Eda by LC-MS/MS analysis; assay type: ADME, organism-based
[23] = AUC (0-infinity) in Sprague-Dawley rat plasma at 4.48 mg/kg, iv and measured upto 24 hrs in presence of 4-F-Eda by LC-MS/MS analysis; assay type: ADME, organism-based; parameters: dose 4.48 mg/kg, time < 24 hrs, route iv
Rattus norvegicus [24] = experiment: Neuroprotective activity against transient middle cerebral artery occlusion induced cerebral infraction Sprague-Dawley rat model assessed as decrease in brain edema at 4.48 mg/kg, iv and measured after 24 hrs in presence of EDA; assay type: functional, organism-based
[25] = Clearance in Sprague-Dawley rat plasma at 4.48 mg/kg, iv and measured upto 24 hrs by LC-MS/MS analysis; assay type: ADME, organism-based
[26] = Toxicity in transient middle cerebral artery occlusion induced ischemia stroke Sprague-Dawley rat model assessed as change in body weight at 4.48 mg/kg, iv and measured after 24 hrs in presence of EDA; assay type: organism-based; settings: in vivo
[27] = Clearance in Sprague-Dawley rat plasma at 4.48 mg/kg, iv and measured upto 24 hrs in presence of 4-F-Eda by LC-MS/MS analysis; assay type: ADME, organism-based
[28] = C0 in Sprague-Dawley rat plasma at 4.48 mg/kg, iv and measured upto 24 hrs by LC-MS/MS analysis; assay type: ADME, organism-based
[29] = Cmax in Sprague-Dawley rat plasma at 4.48 mg/kg, iv and measured upto 24 hrs by LC-MS/MS analysis; assay type: ADME, organism-based; parameters: dose 4.48 mg/kg, time < 24 hrs, route iv
[30] = AUMC (0-t) in Sprague-Dawley rat plasma at 4.48 mg/kg, iv and measured upto 24 hrs by LC-MS/MS analysis; assay type: ADME, organism-based; settings: in vivo
Rattus norvegicus [31] = experiment: Neuroprotective activity against transient middle cerebral artery occlusion induced cerebral ischemia Sprague-Dawley rat model assessed as decrease in infract volume at 140 mg/kg, po and measured after 24 hrs by TTC staining based assay; assay type: functional; parameters: scale not given: the % may be the effect or the level left
Rattus norvegicus [32] = experiment: Neuroprotective activity against transient middle cerebral artery occlusion induced cerebral ischemia Sprague-Dawley rat model assessed as decrease in infract volume at 70 mg/kg, po and measured after 24 hrs by TTC staining based assay; assay type: functional; parameters: scale not given: the % may be the effect or the level left
Rattus norvegicus [33] = experiment: Neuroprotective activity against transient middle cerebral artery occlusion induced cerebral infraction Sprague-Dawley rat model assessed as decrease in cerebral infraction volume at 5.9 mg/kg, iv and measured after 24 hrs by TTC staining based assay; assay type: functional; parameters: scale not given: the % may be the effect or the level left
[34] = Toxicity in transient middle cerebral artery occlusion induced ischemia stroke Sprague-Dawley rat model assessed as change in body weight at 5.90 mg/kg, iv and measured after 24 hrs in presence of 4-F-Eda; assay type: organism-based; settings: in vivo, 5.9 mg/kg
[35] = Toxicity in transient middle cerebral artery occlusion induced ischemia stroke Sprague-Dawley rat model assessed as change in body weight at 5.90 mg/kg, iv and measured after 24 hrs; assay type: organism-based; settings: in vivo, 5.9 mg/kg
Rattus norvegicus [36] = experiment: Neuroprotective activity against transient middle cerebral artery occlusion induced cerebral infraction Sprague-Dawley rat model assessed as decrease in brain edema at 5.9 mg/kg, iv and measured after 24 hrs in presence of 4-F-Eda; assay type: functional, organism-based
Rattus norvegicus [37] = experiment: Neuroprotective activity against transient middle cerebral artery occlusion induced ischemia stroke Sprague-Dawley rat model assessed as increase in neuro-fucntional score at 5.9 mg/kg, iv and measured after 24 hrs in presence of 4-F-Eda by longa's method; assay type: functional, organism-based
Rattus norvegicus [38] = experiment: Neuroprotective activity against transient middle cerebral artery occlusion induced cerebral infraction Sprague-Dawley rat model assessed as decrease in cerebral infraction volume at 5.9 mg/kg, iv and measured after 24 hrs in presence of 4-F-Eda by TTC staining based assay; assay type: functional; parameters: scale not given: the % may be the effect or the level left
Rattus norvegicus [39] = experiment: Neuroprotective activity against transient middle cerebral artery occlusion induced ischemia stroke Sprague-Dawley rat model assessed as increase in neuro-fucntional score at 5.9 mg/kg, iv and measured after 24 hrs by longa's method; assay type: functional, organism-based

## CCCC[C@@H](OC(C)=O)c1ccccc1C(=O)Oc1cc(C)nn1-c1ccc(F)cc1
Rattus norvegicus [1]
  Activity: Active
Rattus norvegicus [2]
  Activity: 67.56%
Rattus norvegicus [3]
  Activity: Active
[4]
  Activity: Non-Toxic

## CCCC[C@@H]1OC(=O)c2ccccc21 [(3S)-BUTYLPHTHALIDE]
[5]
  AUC(0-inf): 1480 ng·h/mL
[6]
  half-life: 0.97 h
[7]
  AUC(0-t) at 24 h: 1470 ng·h/mL
[8]
  AUC(0-t) at 24 h: 2840 ng·h/mL
[9]
  Vd: 2.73 L/kg
[10]
  AUMCt: 3819 hr.hr.ng/ml
[11]
  k el at 24 h: 4.06e-05 s⁻¹
[12]
  Cmax: 6920 ng/mL
[13]
  half-life: 5.05 h
Rattus norvegicus [14]
  Activity: Active
[15]
  Vd: 2.08 L/kg
[16]
  MRT: 1.74 h
[17]
  AUMC: 5006 hr.hr.ng/ml
Rattus norvegicus [18]
  Activity: 57.7%
[19]
  MRT: 0.678 h
[20]
  AUMC: 998 hr.hr.ng/ml
[21]
  k el at 24 h: 0.000202 s⁻¹
[22]
  C0 at 24 h: 13000 ng/mL
[23]
  AUC(0-inf): 2870 ng·h/mL
Rattus norvegicus [24]
  Activity: Active
[25]
  clearance: 51.1 mL/min/kg
[26]
  Activity: Non-Toxic
[27]
  clearance: 26.3 mL/min/kg
[28]
  C0 at 24 h: 5310 ng/mL
[29]
  Cmax: 3290 ng/mL
[30]
  AUMCt: 943 hr.hr.ng/ml

## CCCCC(OC(C)=O)c1ccccc1C(=O)Oc1cc(C)nn1-c1ccc(F)cc1 (racemic)
Rattus norvegicus [31]
  Activity: 61.77%
Rattus norvegicus [2]
  Activity: 66.89%
Rattus norvegicus [32]
  Activity: 52.8%
Rattus norvegicus [3]
  Activity: Active
[4]
  Activity: Non-Toxic

## CCCC[C@H](OC(C)=O)c1ccccc1C(=O)O
Rattus norvegicus [33]
  Activity: 12.67%
[34]
  Activity: Non-Toxic
[35]
  Activity: Non-Toxic
Rattus norvegicus [36]
  Activity: Active
Rattus norvegicus [37]
  Activity: Active
Rattus norvegicus [38]
  Activity: 68.37%
Rattus norvegicus [39]
  Activity: Active
